# Measurements: patent US11180483B2, “Substituted reverse pyrimidine Bmi-1 inhibitors” (PTC Therapeutics, Inc., priority 2012, dated 2021)
# System: Bmi-1
# Experiment: Sandwich ELISA Assay (Bmi-1 ELISA) in HT-1080 cells
# Type: cell-based
# Procedure: Cell Seeding and Compound Treatment (Day 1):
# HT-1080 cells were seeded at 8000 cells/well (50 μL) in 96-well tissue culture plates. After the cells became adherent (3-4 hours), 2× diluted stocks of test compounds in 50 μL DMEM containing 1% DMSO (final DMSO concentration was 0.5%) were added and the plates were incubated at 37° C. under 5% CO2 for 40-48 hours.
# ELISA Plate First Antibody Preparation (Day 2):
# The First Antibody (Millipore Mouse, monoclonal to mouse Bmi-1, clone F6, catalog #05-637) diluted to 2 μg/mL in PBS was added (100 μL) to each well of a Nunc MaxiSorp 96-well ELISA plate. The plate was covered with a plate seal and allowed to stand overnight.
# Cell Lysate Preparation (Day 3):
# Fresh 1× Lysis buffer was prepared on the day of the assay as follows: 1 mM EDTA, 150 mM NaCl, 0.5% Triton-X 100, 10 mM NaF, 20 mM B-Glycerophosphate, 1 mM DTT (in PBS, pH 7.2-7.4) and 1× HALT protease inhibitor cocktail (Pierce #78410).
# The 1× Lysis Buffer (40 μL) was added to each well and the plate was shaken for 5-10 minutes on an orbital shaker to allow cell lysis, then diluent (1% BSA in PBS in 0.5% NP40) (100 μL) was added to each well.
# A standard curve was prepared at the following Bmi-1 concentrations: 8000, 4000, 2000, 1000, 500, 250, 125, 0 pg/mL The Bmi-1 Recombinant Protein Standard (Novus Biologicals PCGF4 Recombinant Protein (P01), catalog #H00000648-P01) used to prepare the standard curve was stored at −80° C. On first thaw, the Bmi-1 Recombinant Protein Standard was diluted to […] in Blocking Buffer (1% BSA in PBS; BSA: Fisher Scientific Catalog #1600-100). Aliquots were taken and refrozen at −80° C. The aliquots may be kept at 4° C. and reused after first thaw, but only within 1-2 weeks. The Bmi-1 Recombinant Protein Standard contains a GST-fusion tag that appears around 70 Kda on Western Blot.
# The prepared ELISA plate was washed 3× with Wash Buffer (0.05% Tween-20 in PBS). The final wash was removed from the plate and the plate was blotted dry. Blocking Buffer (300 μL) (1% BSA in PBS) was added to each well. The plate was covered with a plate seal and incubated at room temperature for 1 hour. The blocked plate was washed 3× with Wash Buffer, then the final wash was removed and the plate was blotted dry. The previously prepared samples and standards were added (100 μL/well) and the plate was covered with a plate seal and incubated at 4° C. overnight.
# The prepared ELISA plate was removed from 4° C., incubated at room temperature for 30 minutes, then washed and blotted dry as previously described for Day 3. The Second Antibody (Cell Signaling Rabbit anti-Bmi-1, Cat #2830) diluted to 1:600 in Blocking Buffer was added (100 μL) to each well, except as needed for background control wells. The plate was covered with a plate seal and incubated for 1.5 hrs at room temperature.
# The ELISA plate was washed and blotted dry as previously described. The Third Antibody (Cell Signaling HRP conjugated anti-rabbit IgG (CellSignaling, Cat #:7074) diluted to 1:300 in Blocking Buffer was added (100 μL) to each well, except as needed for background control wells. The plate was incubated for 1 hr at room temperature.
# The plate was washed and blotted dry as previously described, then prepared TMB substrate (TMB substrate kit, Pierce catalog #34021) (prepared by mixing kit reagents 1:1) (100 μL) was added per well. The plate was incubated for 20-30 minutes at room temperature in the dark, then Stop Solution (2 M sulfuric acid in water) (50 μL) was added per well. The plates were read at OD450 (experimental) and OD570 (reference).
row,Structure (SMILES),EC50 [nM]
1,"COc1ccc(Nc2ccnc(-n3c(C)nc4ccccc43)n2)cc1 [Cpd 1, N-(4-methoxyphenyl)-2-(2-methyl-1H-benzimidazol-1-yl)pyrimidin-4-amine]",10 to 100
2,"Cc1nc2ccccn2c1-c1nccc(Nc2ccc3c(c2)OCCO3)n1 [Cpd 2, N-(2,3-dihydro-1,4-benzodioxin-6-yl)-2-(2-methylimidazo[1,2-a]pyridin-3-yl)pyrimidin-4-amine]",100 to 3000
3,"Cc1nc2ccccn2c1-c1nccc(Nc2ccc(C(F)(F)F)cc2)n1 [Cpd 3, 2-(2-methylimidazo[1,2-a]pyridin-3-yl)-N-[4-(trifluoromethyl)phenyl]pyrimidin-4-amine]",10 to 100
4,"COc1ccc(Nc2ccnc(-c3c(C)nc4ccccn34)n2)cc1 [Cpd 4, N-(4-methoxyphenyl)-2-(2-methylimidazo[1,2-a]pyridin-3-yl)pyrimidin-4-amine]",10 to 100
5,"Cc1nc2ccccn2c1-c1nccc(Nc2ccc(Cl)cc2)n1 [Cpd 5, N-(4-chlorophenyl)-2-(2-methylimidazo[1,2-a]pyridin-3-yl)pyrimidin-4-amine]",100 to 3000
6,"Cc1nc2ccccn2c1-c1nccc(Nc2ccccc2)n1 [Cpd 6, 2-(2-methylimidazo[1,2-a]pyridin-3-yl)-N-phenylpyrimidin-4-amine]",10 to 100
7,"FC(F)(F)c1ccc(Nc2ccnc(-c3c(C(F)(F)F)nc4ccccn34)n2)cc1 [Cpd 7, 2-[2-(trifluoromethyl)imidazo[1,2-a]pyridin-3-yl]-N-[4-(trifluoromethyl)phenyl]pyrimidin-4-amine]",100 to 3000
8,"FC(F)(F)c1nc2ccccn2c1-c1nccc(Nc2ccc(Cl)cc2)n1 [Cpd 8, N-(4-chlorophenyl)-2-[2-(trifluoromethyl)imidazo[1,2-a]pyridin-3-yl]pyrimidin-4-amine]",100 to 3000
9,"Cc1ccc(Nc2ccnc(-c3c(C(F)(F)F)nc4ccccn34)n2)cc1 [Cpd 9, N-(4-methylphenyl)-2-[2-(trifluoromethyl)imidazo[1,2-a]pyridin-3-yl]pyrimidin-4-amine]",1 to 10
10,"FC(F)(F)c1nc2ccccn2c1-c1nccc(Nc2ccc(Br)cc2)n1 [Cpd 10, N-(4-bromophenyl)-2-[2-(trifluoromethyl)imidazo[1,2-a]pyridin-3-yl]pyrimidin-4-amine]",10 to 100
11,"FC(F)Oc1ccc(Nc2ccnc(-c3c(C(F)(F)F)nc4ccccn34)n2)cc1 [Cpd 11, N-[4-(difluoromethoxy)phenyl]-2-[2-(trifluoromethyl)imidazo[1,2-a]pyridin-3-yl]pyrimidin-4-amine]",100 to 3000
12,"COc1ccc(Nc2ccnc(-c3c(C(F)(F)F)nc4ccccn34)n2)cc1 [Cpd 12, N-(4-methoxyphenyl)-2-[2-(trifluoromethyl)imidazo[1,2-a]pyridin-3-yl]pyrimidin-4-amine]",10 to 100
13,"FC(F)(F)c1ccc(Nc2ccnc(-c3c(C(F)(F)F)nc4ccc(Cl)cn34)n2)cc1 [Cpd 13, 2-[6-chloro-2-(trifluoromethyl)imidazo[1,2-a]pyridin-3-yl]-N-[4-(trifluoromethyl)phenyl]pyrimidin-4-amine]",100 to 3000
14,"FC(F)(F)Oc1ccc(Nc2ccnc(-c3c(C(F)(F)F)nc4ccc(Cl)cn34)n2)cc1 [Cpd 14, 2-[6-chloro-2-(trifluoromethyl)imidazo[1,2-a]pyridin-3-yl]-N-[4-(trifluoromethoxy)phenyl]pyrimidin-4-amine]",100 to 3000
15,"FC(F)(F)c1nc2ccc(Cl)cn2c1-c1nccc(Nc2ccc(Br)cc2)n1 [Cpd 15, N-(4-bromophenyl)-2-[6-chloro-2-(trifluoromethyl)imidazo[1,2-a]pyridin-3-yl]pyrimidin-4-amine]",10 to 100
16,"FC(F)Oc1ccc(Nc2ccnc(-c3c(C(F)(F)F)nc4ccc(Cl)cn34)n2)cc1 [Cpd 16, 2-[6-chloro-2-(trifluoromethyl)imidazo[1,2-a]pyridin-3-yl]-N-[4-(difluoromethoxy)phenyl]pyrimidin-4-amine]",10 to 100
17,"FC(F)(F)c1nc2ccc(Cl)cn2c1-c1nccc(Nc2ccc(Cl)cc2)n1 [Cpd 17, N-(4-chlorophenyl)-2-[6-chloro-2-(trifluoromethyl)imidazo[1,2-a]pyridin-3-yl]pyrimidin-4-amine]",100 to 3000
18,"Cc1nc2ccc(C(F)(F)F)cn2c1-c1nccc(Nc2ccc(C(F)(F)F)cc2)n1 [Cpd 18, 2-[2-methyl-6-(trifluoromethyl)imidazo[1,2-a]pyridin-3-yl]-N-[4-(trifluoromethyl)phenyl]pyrimidin-4-amine]",100 to 3000
19,"Cc1nc2ccc(C(F)(F)F)cn2c1-c1nccc(Nc2ccc(Br)cc2)n1 [Cpd 19, N-(4-bromophenyl)-2-[2-methyl-6-(trifluoromethyl)imidazo[1,2-a]pyridin-3-yl]pyrimidin-4-amine]",100 to 3000
20,"Cc1ccc(Nc2ccnc(-c3c(C)nc4ccc(C(F)(F)F)cn34)n2)cc1 [Cpd 20, N-(4-methylphenyl)-2-[2-methyl-6-(trifluoromethyl)imidazo[1,2-a]pyridin-3-yl]pyrimidin-4-amine]",100 to 3000
21,"Cc1ccc(Nc2ccnc(-c3c(C(F)(F)F)nc4ccc(F)cn34)n2)cc1 [Cpd 21, 2-[6-fluoro-2-(trifluoromethyl)imidazo[1,2-a]pyridin-3-yl]-N-(4-methylphenyl)pyrimidin-4-amine]",1 to 10
22,"COc1ccc(Nc2ccnc(-c3c(C(F)(F)F)nc4ccc(F)cn34)n2)cc1 [Cpd 22, 2-[6-fluoro-2-(trifluoromethyl)imidazo[1,2-a]pyridin-3-yl]-N-(4-methoxyphenyl)pyrimidin-4-amine]",10 to 100
23,"COc1ccc(Nc2ccnc(-c3c(C(F)(F)F)n(C)c4ccc(Cl)cc34)n2)cc1 [Cpd 23, 2-[5-chloro-1-methyl-2-(trifluoromethyl)-1H-indol-3-yl]-N-(4-methoxyphenyl)pyrimidin-4-amine]",100 to 3000
24,"Cn1c(C(F)(F)F)c(-c2nccc(Nc3ccc(OC(F)F)cc3)n2)c2cc(Cl)ccc21 [Cpd 24, 2-[5-chloro-1-methyl-2-(trifluoromethyl)-1H-indol-3-yl]-N-[4-(difluoromethoxy)phenyl]pyrimidin-4-amine]",100 to 3000
25,"Cn1c(C(F)(F)F)c(-c2nccc(Nc3ccc(Br)cc3)n2)c2cc(Cl)ccc21 [Cpd 25, N-(4-bromophenyl)-2-[5-chloro-1-methyl-2-(trifluoromethyl)-1H-indol-3-yl]pyrimidin-4-amine]",100 to 3000
26,"Fc1ccc2nc(-c3ccccc3)c(-c3nccc(Nc4ccc(Br)cc4)n3)n2c1 [Cpd 26, N-(4-bromophenyl)-2-(6-fluoro-2-phenylimidazo[1,2-a]pyridin-3-yl)pyrimidin-4-amine]",100 to 3000
27,"Cc1ccc(Nc2ccnc(-c3c(-c4ccccc4)nc4ccc(F)cn34)n2)cc1 [Cpd 27, 2-(6-fluoro-2-phenylimidazo[1,2-a]pyridin-3-yl)-N-(4-methylphenyl)pyrimidin-4-amine]",100 to 3000
28,"FC(F)(F)c1nc2ccccn2c1-c1nccc(Nc2ccc3c(c2)OCO3)n1 [Cpd 28, N-(1,3-benzodioxol-5-yl)-2-[2-(trifluoromethyl)imidazo[1,2-a]pyridin-3-yl]pyrimidin-4-amine]",100 to 3000
29,"FC(F)(F)c1nc2ccccn2c1-c1nccc(Nc2ccc3c(c2)OCCO3)n1 [Cpd 29, N-(2,3-dihydro-1,4-benzodioxin-6-yl)-2-[2-(trifluoromethyl)imidazo[1,2-a]pyridin-3-yl]pyrimidin-4-amine]",10 to 100
30,"COc1ccc(Nc2ccnc(-c3c(C(F)(F)F)nc4ccccn34)n2)cn1 [Cpd 30, N-(6-methoxypyridin-3-yl)-2-[2-(trifluoromethyl)imidazo[1,2-a]pyridin-3-yl]pyrimidin-4-amine]",100 to 3000
